Assay results reported in ChEMBL document CHEMBL4699547, “Design, synthesis, and multitargeted profiling of N-benzylpyrrolidine derivatives for the treatment of Alzheimer's disease” (Bioorg Med Chem, 2020).
The source made the active and inactive calls. The rule behind the calls is not given here.

Tests used:
Acetylcholinesterase [1] = target: T1, Acetylcholinesterase (Homo sapiens, UniProt P22303); assay: Inhibition of human AChE by Ellman's method
Cholinesterase [2] = target: T2, Cholinesterase (Homo sapiens, UniProt P06276); assay: Inhibition of human BChE by Ellman's method
Beta-secretase 1 = Beta-secretase 1 (Homo sapiens, UniProt P56817); assay: Inhibition of human BACE-1 by FRET assay
[3] = Permeability of the compound at 25 ug/ml after 18 hrs by PAMPA-BBB assay
Cholinesterase [4] = target: T2, Cholinesterase; assay: Inhibition of BChE (unknown origin)
Cholinesterase [5] = target: Cholinesterase (Equus caballus, UniProt P81908); assay: Inhibition of equine serum BuChE by Ellman's method
Acetylcholinesterase [6] = target: T1, Acetylcholinesterase; assay: Mixed type inhibition of human AChE assessed as decrease in Vmax using varying level of acetylthiocholine iodide as substrate by Lineweaver-Burk plot analysis
Acetylcholinesterase [7] = target: T1, Acetylcholinesterase; assay: Mixed type inhibition of human AChE assessed as dissociation constant using varying level acetylthiocholine iodide as substrate by Dixon plot analysis
Acetylcholinesterase [8] = target: T1, Acetylcholinesterase; assay: Mixed type inhibition of human AChE assessed as increase in Km using varying level acetylthiocholine iodide as substrate by Lineweaver-Burk plot analysis
[9] = Cmax in Wistar rat at 10 mg/kg, po measured up to 48 hrs; format: ADME, organism-based; set-up: route oral, dose 10 mg/kg, time <=48; conditions: in vivo
Rattus norvegicus [10] = assay: Cognitive enhancing effect in scopolamine-induced Wistar rat model of amnesia assessed as effect on total arm entries at 10 mg/kg, po pretreated for 7 days followed by scopolamine challenge by Y-maze test; format: functional, organism-based; conditions: time 7.0 day
Rattus norvegicus [11] = assay: Improvement in learning and spatial memory in icv infused amyloid beta (1 to 42)-induced rat model of Alzheimer's disease assessed as increase in number of platform crossing at 10 mg/kg, po administered for 9 consecutive days starting from 7 days post surgery and measured daily for 5 days by Morris water maze test; format: functional, organism-based; conditions: time 9.0 day
[12] = AUC (0 to 48 hrs) in Wistar rat at 10 mg/kg, po measured up to 48 hrs; format: ADME, organism-based; set-up: route oral, dose 10 mg/kg, time <=48; conditions: in vivo
Rattus norvegicus [13] = assay: Cognitive enhancing effect in scopolamine-induced Wistar rat model of amnesia assessed as increase in spontaneous alteration at 10 mg/kg, po pretreated for 7 days followed by scopolamine challenge by Y-maze test; format: functional, organism-based; conditions: time 7.0 day
Rattus norvegicus [14] = assay: Cognitive enhancing effect in po dosed scopolamine-induced Wistar rat model of amnesia assessed as increase in spontaneous alteration pretreated for 7 days followed by scopolamine challenge by Y-maze test; format: functional, organism-based; conditions: dose mg/kg 5-10, time 7.0 day
Rattus norvegicus [15] = assay: Ex vivo inhibition of AChE in brain of scopolamine-induced Wistar rat model of amnesia at 2.5 to 10 mg/kg, po pretreated for 7 days followed by scopolamine challenge using acetylthiocholine iodide as substrate by Ellman's method; format: functional, organism-based; conditions: dose mg/kg 2.5-10, time 7.0 day
SH-SY5Y = assay: Neuroprotective activity against amyloid beta (1 to 42)-induced oxidative stress in human SH-SY5Y cells assessed as effect on cell viability at 10 to 80 uM measured after 24 hrs by MTT assay (reference value: 62.1 %); format: functional; conditions: dose microM 10-80
Rattus norvegicus [16] = assay: Antioxidant activity in scopolamine-induced Wistar rat model of amnesia assessed as decrease in MDA level at 2.5 to 10 mg/kg, po pretreated for 7 days followed by scopolamine challenge […]; format: functional, organism-based; conditions: dose mg/kg 2.5-10, time 7.0 day
Rattus norvegicus [17] = assay: Antioxidant activity in scopolamine-induced Wistar rat model of amnesia assessed as increase in SOD level at 2.5 to 10 mg/kg, po pretreated for 7 days followed by scopolamine challenge […]; format: functional, organism-based; conditions: dose mg/kg 2.5-10, time 7.0 day
[18] = MRT in Wistar rat at 10 mg/kg, po measured up to 48 hrs; format: ADME, organism-based; conditions: in vivo
[19] = Acute toxicity in po dosed Wistar rat assessed as maximum tolerated dose by OCED guideline method; format: organism-based; conditions: in vivo
Rattus norvegicus [20] = assay: Improvement in learning and spatial memory in icv infused amyloid beta (1 to 42)-induced rat model of Alzheimer's disease assessed as reduction in escape latency at 10 mg/kg, po administered for 9 consecutive days starting from 7 days post surgery and measured daily for 5 days by Morris water maze test; format: functional, organism-based; conditions: time 9.0 day
[21] = Acute toxicity in Wistar rat assessed as abnormal signs at 175 to 1750 mg/kg, po measured up to 14 days by OCED guideline method; format: organism-based; conditions: in vivo, 336 h, dose 175-1750 mg/kg, time <=14 day
[22] = Tmax in Wistar rat at 10 mg/kg, po measured up to 48 hrs; format: ADME, organism-based; conditions: in vivo
[23] = Half life in Wistar rat at 10 mg/kg, po measured up to 48 hrs; format: ADME, organism-based; conditions: in vivo
Rattus norvegicus [24] = assay: Cognitive enhancing effect in scopolamine-induced Wistar rat model of amnesia assessed as effect on total arm entries at 2.5 to 10 mg/kg, po pretreated for 7 days followed by scopolamine challenge by Y-maze test; format: functional, organism-based; conditions: dose mg/kg 2.5-10, time 7.0 day
Rattus norvegicus [25] = assay: Cognitive enhancing effect in scopolamine-induced Wistar rat model of amnesia assessed as effect on total arm entries at 5 mg/kg, po pretreated for 7 days followed by scopolamine challenge by Y-maze test; format: functional, organism-based; conditions: time 7.0 day
Rattus norvegicus [26] = organism: Rattus norvegicus; conditions: Wistar, dose 5.0 mg/kg, time 7.0 day

T2 sequence (P06276 whole entry): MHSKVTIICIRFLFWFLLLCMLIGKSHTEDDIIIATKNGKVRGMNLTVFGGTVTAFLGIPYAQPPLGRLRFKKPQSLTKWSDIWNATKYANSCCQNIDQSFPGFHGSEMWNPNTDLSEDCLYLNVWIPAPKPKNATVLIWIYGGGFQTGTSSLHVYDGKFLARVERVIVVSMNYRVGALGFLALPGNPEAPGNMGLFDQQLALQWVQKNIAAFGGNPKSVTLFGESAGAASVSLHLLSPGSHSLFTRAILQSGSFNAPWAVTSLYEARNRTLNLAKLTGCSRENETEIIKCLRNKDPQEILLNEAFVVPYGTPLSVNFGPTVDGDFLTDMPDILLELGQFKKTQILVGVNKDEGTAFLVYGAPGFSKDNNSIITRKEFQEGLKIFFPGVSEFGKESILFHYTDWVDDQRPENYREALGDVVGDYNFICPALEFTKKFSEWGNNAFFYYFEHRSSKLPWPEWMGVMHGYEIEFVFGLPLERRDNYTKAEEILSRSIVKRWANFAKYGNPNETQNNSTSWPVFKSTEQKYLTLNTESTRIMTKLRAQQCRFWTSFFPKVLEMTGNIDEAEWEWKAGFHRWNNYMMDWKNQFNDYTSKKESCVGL
T1 sequence (P22303 whole entry): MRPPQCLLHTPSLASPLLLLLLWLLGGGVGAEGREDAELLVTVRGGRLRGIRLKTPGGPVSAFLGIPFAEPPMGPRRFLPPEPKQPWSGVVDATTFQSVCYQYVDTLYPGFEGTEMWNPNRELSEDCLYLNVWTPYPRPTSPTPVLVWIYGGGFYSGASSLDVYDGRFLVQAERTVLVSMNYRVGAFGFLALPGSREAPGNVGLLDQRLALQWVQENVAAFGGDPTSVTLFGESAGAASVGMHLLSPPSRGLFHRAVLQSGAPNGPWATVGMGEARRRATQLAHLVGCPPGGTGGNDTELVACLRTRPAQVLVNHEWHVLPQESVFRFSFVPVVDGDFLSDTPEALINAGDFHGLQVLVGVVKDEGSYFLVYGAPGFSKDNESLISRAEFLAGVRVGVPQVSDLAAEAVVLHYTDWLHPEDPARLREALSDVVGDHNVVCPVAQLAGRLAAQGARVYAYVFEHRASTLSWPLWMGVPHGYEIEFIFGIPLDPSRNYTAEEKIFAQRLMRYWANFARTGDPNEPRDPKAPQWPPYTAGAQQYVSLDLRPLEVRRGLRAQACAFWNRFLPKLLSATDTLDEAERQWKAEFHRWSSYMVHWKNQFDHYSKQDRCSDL
Sequence of Beta-secretase 1 (P56817 whole entry): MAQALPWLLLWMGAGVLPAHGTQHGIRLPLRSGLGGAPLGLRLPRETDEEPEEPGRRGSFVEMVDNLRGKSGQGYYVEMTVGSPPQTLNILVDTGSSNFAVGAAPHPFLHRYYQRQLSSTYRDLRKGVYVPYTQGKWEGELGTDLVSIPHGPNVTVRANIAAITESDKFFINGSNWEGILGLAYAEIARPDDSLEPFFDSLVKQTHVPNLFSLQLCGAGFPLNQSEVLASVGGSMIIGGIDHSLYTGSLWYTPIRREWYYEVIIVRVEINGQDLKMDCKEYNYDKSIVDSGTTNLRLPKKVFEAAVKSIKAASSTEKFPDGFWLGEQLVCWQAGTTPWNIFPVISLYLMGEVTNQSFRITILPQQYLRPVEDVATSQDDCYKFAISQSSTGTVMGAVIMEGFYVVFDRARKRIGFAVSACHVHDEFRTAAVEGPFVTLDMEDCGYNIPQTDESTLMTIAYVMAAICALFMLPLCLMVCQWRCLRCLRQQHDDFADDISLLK
Sequence of Cholinesterase (Equus caballus, UniProt P81908) (P81908 whole entry): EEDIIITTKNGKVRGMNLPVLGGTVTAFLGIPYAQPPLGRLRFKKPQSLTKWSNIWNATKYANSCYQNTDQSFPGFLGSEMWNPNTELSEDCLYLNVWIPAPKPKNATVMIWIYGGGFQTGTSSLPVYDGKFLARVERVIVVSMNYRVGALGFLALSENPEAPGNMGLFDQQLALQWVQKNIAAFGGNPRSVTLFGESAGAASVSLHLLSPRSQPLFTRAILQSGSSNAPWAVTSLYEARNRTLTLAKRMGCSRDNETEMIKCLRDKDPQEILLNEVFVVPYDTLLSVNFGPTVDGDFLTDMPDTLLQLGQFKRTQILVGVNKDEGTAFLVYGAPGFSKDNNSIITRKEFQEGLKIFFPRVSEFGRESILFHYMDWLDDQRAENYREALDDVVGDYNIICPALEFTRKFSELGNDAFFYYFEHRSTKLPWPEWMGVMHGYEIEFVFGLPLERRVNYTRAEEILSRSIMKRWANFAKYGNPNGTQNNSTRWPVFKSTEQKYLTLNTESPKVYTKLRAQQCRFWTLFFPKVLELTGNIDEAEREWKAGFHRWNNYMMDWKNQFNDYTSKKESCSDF

| SMILES | IC50 (Acetylcholinesterase [1]) | IC50 (Cholinesterase [2]) | IC50 (Beta-secretase 1) | also measured |
| --- | --- | --- | --- | --- |
| Oc1ccccc1CNC1CCN(Cc2ccccc2)C1 (stereo not drawn) | 2260 nM | 2730 nM | 2370 nM |  |
| Oc1ccc(/C=N\C2CCN(Cc3ccccc3)C2)cc1 (stereo not drawn) | 5630 nM | 2360 nM | 4580 nM |  |
| Fc1ccc(CNC2CCN(Cc3ccccc3)C2)cc1 (stereo not drawn) | 149 nM | 791 nM | 824 nM | Papp at 18 h, 25 ug/ml [3]: 4.2 ×10⁻⁶ cm/s |
| Cc1cccc(/C=N\C2CCN(Cc3ccccc3)C2)c1 (stereo not drawn) | > 10000 nM | 5790 nM |  |  |
| Oc1ccc(CNC2CCN(Cc3ccccc3)C2)cc1 (stereo not drawn) | 1750 nM | 1930 nM | 968 nM |  |
| Brc1ccc(/C=N\C2CCN(Cc3ccccc3)C2)cc1 (stereo not drawn) | 1300 nM | 1190 nM | 1750 nM |  |
| C(=N/C1CCN(Cc2ccccc2)C1)/c1ccccc1 (stereo not drawn) | 4120 nM | 2680 nM | 4380 nM |  |
| COc1cc(/C=N\C2CCN(Cc3ccccc3)C2)cc(OC)c1OC (stereo not drawn) | 7790 nM | 3500 nM | > 10000 nM |  |
| c1ccc(CC2CCCN(CCNC3CCN(Cc4ccccc4)C3)C2)cc1 (stereo not drawn) |  |  |  | IC50 (Cholinesterase [4]): 1840 nM |
| Clc1ccc(/C=N\C2CCN(Cc3ccccc3)C2)cc1 (stereo not drawn) | 1240 nM | 1180 nM | 1260 nM |  |
| Cc1c(OCc2ccccc2)cccc1N1CCN(CCNC2CCN(Cc3ccccc3)C2)CC1 (stereo not drawn) |  |  |  | IC50 (Cholinesterase [5]): 7780 nM |
| Oc1ccc(/C=N\C2CCN(Cc3ccccc3)C2)c(O)c1 (stereo not drawn) | 3680 nM | 3280 nM | 4430 nM |  |
| Fc1ccc(/C=N\C2CCN(Cc3ccccc3)C2)cc1 (stereo not drawn) | 1070 nM | 1050 nM | 1960 nM |  |
| Clc1ccc(CNC2CCN(Cc3ccccc3)C2)cc1 (stereo not drawn) | 178 nM | 265 nM | 163 nM | Papp at 18 h, 25 ug/ml [3]: 4.1 ×10⁻⁶ cm/s |
| COc1cccc(/C=N\C2CCN(Cc3ccccc3)C2)c1OC (stereo not drawn) | > 10000 nM | 4270 nM |  |  |
| COc1cccc(CNC2CCN(Cc3ccccc3)C2)c1OC (stereo not drawn) | 4380 nM | 5460 nM | 2860 nM |  |
| FC(F)(F)c1ccc(/C=N\C2CCN(Cc3ccccc3)C2)cc1 (stereo not drawn) | 1040 nM | 2150 nM | 683 nM |  |

| SMILES | IC50 (Acetylcholinesterase [1]) | IC50 (Cholinesterase [2]) | IC50 (Beta-secretase 1) | also measured |
| --- | --- | --- | --- | --- |
| c1ccc(CNC2CCN(Cc3ccccc3)C2)cc1 (stereo not drawn) | 1130 nM | 1570 nM | 2420 nM |  |
| FC(F)(F)c1ccc(CNC2CCN(Cc3ccccc3)C2)cc1 (stereo not drawn) | 128 nM | 968 nM | 975 nM | Papp at 18 h, 25 ug/ml [3]: 6.3 ×10⁻⁶ cm/s |
| FC(F)(F)Oc1ccc(CNC2CCN(Cc3ccccc3)C2)cc1 (stereo not drawn) | 58 nM | 82 nM | 115 nM | inhibition (Acetylcholinesterase [6]): Active; Ki (Acetylcholinesterase [7]): 23 nM; inhibition (Acetylcholinesterase [8]): Active; Cmax [9]: 272 ng/mL; Activity (Rattus norvegicus [10]): inactive; Activity (Rattus norvegicus [11]): Active; AUC(0-t) [12]: 5460 ng·h/mL; Activity (Rattus norvegicus [13]): Active; Activity (Rattus norvegicus [14]): Dose-dependent effect; inhibition (Rattus norvegicus [15]): Active; Activity (SH-SY5Y): 71.5%; Activity (Rattus norvegicus [16]): Active; Activity (Rattus norvegicus [17]): Active; MRT [18]: 22.7 h; MTD [19]: 750 mg/kg; Activity (Rattus norvegicus [20]): Active; Papp at 18 h, 25 ug/ml [3]: 6.9 ×10⁻⁶ cm/s; Activity [21]: Non-Toxic; Tmax [22]: 3.3 h; half-life [23]: 15.7 h |
| Cc1ccc(/C=N\C2CCN(Cc3ccccc3)C2)cc1 (stereo not drawn) | > 10000 nM | 4860 nM |  |  |
| Fc1ccc(CNC2CCN(Cc3ccccc3)C2)c(F)c1 (stereo not drawn) | 69 nM | 127 nM | 97 nM | Activity (Rattus norvegicus [24]): inactive; Activity (Rattus norvegicus [13]): Active; Activity (Rattus norvegicus [14]): Dose-dependent effect; inhibition (Rattus norvegicus [15]): Active; Activity (SH-SY5Y): 66.8%; Activity (Rattus norvegicus [16]): Active; Activity (Rattus norvegicus [17]): Active; MTD [19]: 1750 mg/kg; Papp at 18 h, 25 ug/ml [3]: 5.8 ×10⁻⁶ cm/s; Activity [21]: Non-Toxic |
| COc1cc2c(cc1OC)C(=O)C(CC1CCN(Cc3ccccc3)CC1)C2 (stereo not drawn) |  |  |  | Activity (Rattus norvegicus [25]): inactive; inhibition (Rattus norvegicus [26]): Active |
| FC(F)(F)Oc1ccc(/C=N\C2CCN(Cc3ccccc3)C2)cc1 (stereo not drawn) | 864 nM | 695 nM | 2090 nM |  |
| Fc1ccc(/C=N\C2CCN(Cc3ccccc3)C2)c(F)c1 (stereo not drawn) | 965 nM | 1390 nM | 2650 nM |  |
| Brc1ccc(CNC2CCN(Cc3ccccc3)C2)cc1 (stereo not drawn) | 133 nM | 758 nM | 648 nM | Papp at 18 h, 25 ug/ml [3]: 5.1 ×10⁻⁶ cm/s |
| O=[N+]([O-])c1ccc(/C=N\C2CCN(Cc3ccccc3)C2)cc1 (stereo not drawn) | 2460 nM | 2350 nM | 3780 nM |  |
| Oc1ccccc1/C=N\C1CCN(Cc2ccccc2)C1 (stereo not drawn) | > 10000 nM | 4150 nM |  |  |
| Cc1cccc(CNC2CCN(Cc3ccccc3)C2)c1 (stereo not drawn) | > 10000 nM | 2970 nM |  |  |
| Cc1ccc(CNC2CCN(Cc3ccccc3)C2)cc1 (stereo not drawn) | 6390 nM | 8750 nM | 2240 nM |  |
| O=[N+]([O-])c1ccc(CNC2CCN(Cc3ccccc3)C2)cc1 (stereo not drawn) | 741 nM | 1360 nM | 1810 nM |  |
| Oc1ccc(CNC2CCN(Cc3ccccc3)C2)c(O)c1 (stereo not drawn) | 1520 nM | 2690 nM | 482 nM |  |
| COc1cc(CNC2CCN(Cc3ccccc3)C2)cc(OC)c1OC (stereo not drawn) | 3130 nM | 3220 nM | 844 nM |  |
